Laboratory results reported in US9475789B2, “Use of polyenylpyrrole derivatives for treating inflammation” (WELLHEAD BIOLOGICAL TECHNOLOGY CORP., priority 2014, dated 2016).

Columns and labels:
IL-1β = IL-1β ELISA, LPS+ATP-activated peritoneal macrophages; assay type: cell-based, C57BL/6 mice; settings: primary peritoneal macrophages; compound before LPS and ATP
Protocol: (§1) (A) J774A.1 macrophages (1×10^6/ml) and (B) peritoneal macrophages (1×10^5/ml) were incubated with compound 1h for 30 min followed by LPS (1 μg/ml) stimulating for 5.5 h, then the cells were stimulated with ATP (5 mM) for an additional 30 min. The IL-1β in the culture medium was measured by ELISA and the expression of active caspase-1 (p10) was measured by Western blot. In (C) and (D), J774A.1 macrophages (1×10^6/ml) were incubated with LPS (1 μg/ml) for 5.5 h, then cells were incubated with compound 1h for 30 min followed by stimulating with ATP (5 mM) for an additional 30 min. The IL-1β and IL-6 in the culture medium were measured by ELISA and the expression of active caspase-1 (p10) was measured by Western blot. In (E), J774A.1 macrophages (1×10^6/ml) were incubated with compound 1h for 30 min followed by LPS (1 μg/ml) stimulating for 6 h. The expression of NLRP3 and proIL-1β were measured by Western blot.
(§2) The effects of tested samples on IL-1β, TNF-α and IL-6 production were measured by ELISA according to the manufacturer's instruction. […] Following the addition of 100 μl of stop solution to each well to stop the reaction, the absorbance of the plate was measured by a microplate reader at 450 nm wavelength.

IL-6 = IL-6 ELISA, LPS-primed ATP-stimulated J774A.1 macrophages; assay type: cell-based, mouse; settings: LPS-primed J774A.1; compound 30 min before ATP stimulation
Protocol: as §1, §2

TNF-α = TNF-α ELISA, RAW 264.7 macrophages; assay type: cell-based, murine
Protocol: In (A) and (C), cells (5×10^5/ml) were incubated with polyenylpyrrole derivatives or DMSO (vehicle) for 30 min followed by stimulating with LPS (1 μg/ml) for 24 h, then NO (A), IL-6 and TNF-α (C) concentration in culture medium were assayed by Griess reaction and ELISA, respectively. In (B), cells (5×10^5/ml) were pretreated with polyenylpyrrole derivatives or DMSO for 30 min followed by stimulating with LPS (1 μg/ml) for 24 h, then the protein expression of iNOS and COX-2 were assayed by Western blot.
The effects of tested samples on IL-1β, TNF-α and IL-6 production were measured by ELISA according to the manufacturer's instruction. In brief, 50 μl of biotinylated antibody reagent and 50 μl of supernatant were added to an anti-mouse IL-1β, TNF-α and IL-6 precoated stripwell plate, and incubated at room temperature for 2 h. After washing the plate three times with washing buffer, 100 μl of diluted streptavidin-HRP concentrate was added to each well and incubated at room temperature for 30 min. The washing process was repeated; then 100 μl of a premixed tetramethylbenzidine substrate solution was added to each well and developed at room temperature in the dark for 30 min. Following the addition of 100 μl of stop solution to each well to stop the reaction, the absorbance of the plate was measured by a microplate reader at 450 nm wavelength.

NF-κB p65 = NF-κB p65 nuclear translocation ELISA, RAW 264.7 macrophages; assay type: cell-based, murine; settings: compound 1h 10-40 μM, LPS 20 min
Protocol: (§3) (A) RAW 264.7 macrophages (5×10^5/ml) or (B) J774A.1 macrophages (5×10^5/ml) were incubated with compound 1h or DMSO for 30 min followed by LPS (1 μg/ml) stimulating for 20 min, then the phosphorylation levels of IKK-α and IκB-α and total IκB-α protein level were analyzed by Western blot. (C) RAW 264.7 macrophages (5×10^5/ml) or (D) J774A.1 macrophages (5×10^5/ml) were incubated with compound 1h (10-40 μM) or DMSO for 30 min followed by LPS (1 μg/ml) stimulating for 20 min, then the nuclear translocation of NF-κB were analyzed by ELISA. (E) RAW-Blue™ cells (5×10^5/ml) were incubated with compound 1h (2.5-40 μM) or DMSO for 30 min followed by LPS (1 μg/ml) stimulating for 24 h, then the SEAP activity was measured by QUANTI-Blue™. […] In (C), (D), and (E), the data are expressed as the mean±SD for three separate experiments. *, **, and *** indicate a significant difference at the level of p<0.05, p<0.01, and p<0.001 respectively compared to LPS group.
Nuclear protein from RAW 264.7 and J774A.1 cells were extracted using a Nuclear Extract Kit (Active Motif) according to the manufacturer's instructions and nuclear NF-κB p65 activation quantified using an ELISA-based TransAM NF-κB kit (Active Motif, Tokyo, Japan) according to the manufacturer's protocol by reading the absorbance with a microplate absorbance reader (Bio-Rad Laboratories, Inc) at 450 nm with a reference wavelength of 655 nm.

proIL-1β = assay: Western blot of proIL-1β, LPS-activated J774A.1 macrophages; assay type: cell-based, mouse; settings: compound 30 min, then LPS 6 h
Protocol: as §1
(§4) Whole cell lysates were separated by SDS-PAGE and electrotransferred to a PVDF membrane. The membranes were incubated in blocking solution—5% nonfat milk in phosphate buffered saline with 0.1% Tween 20—at room temperature for 1 h. Each membrane was incubated with a specific primary antibody at room temperature for 2 h. After washing three times in PBS with 0.1% Tween 20, the membrane was incubated with an HRP-conjugated secondary antibody directed against the primary antibody. […]

IKK-α and IκB-α = assay: Western blot of IKK-α and IκB-α, LPS-activated RAW 264.7 macrophages; assay type: cell-based, murine; settings: LPS-activated RAW 264.7, LPS 20 min
Protocol: as §3
Whole cell lysates were separated by SDS-PAGE and electrotransferred to a PVDF membrane. The membranes were incubated in blocking solution—5% nonfat milk in phosphate buffered saline with 0.1% Tween 20—at room temperature for 1 h. Each membrane was incubated with a specific primary antibody at room temperature for 2 h. After washing three times in PBS with 0.1% Tween 20, the membrane was incubated with an HRP-conjugated secondary antibody directed against the primary antibody. The membrane was developed by an enhanced chemiluminescence Western blot detection system.

NF-κB = NF-κB reporter assay (SEAP), RAW-Blue cells; assay type: cell-based, murine; settings: compound 1h 2.5-40 μM, LPS 24 h
Protocol: as §3
RAW-Blue™ cells, RAW 264.7 macrophages which stably express a secreted embryonic alkaline phosphatase (SEAP) gene inducible by NF-κB, were seeded in 60 mm dishes at a density of 5×10^5 cells/ml, and grown overnight in a 5% CO2 incubator at 37° C. […] Results of the SEAP activity were assessed by measuring the optical density at 655 nm using an ELISA reader.

caspase-1 = assay: Western blot of active caspase-1 (p10), LPS+ATP-activated J774A.1 macrophages; assay type: cell-based, mouse
Protocol: as §1, §4

How did the IL-1β inhibition activity (IL-1β) turn out when `O=c1cc(O)cc(/C=C/C=C/C=C/C=C/c2[nH]ccc2Cl)o1` [Compound 1h] was run?
The IL-1β inhibition activity was “confirmed”.

What about the IL-6 secretion (IL-6) of the same compound?
Its IL-6 secretion is “no significant effect”.

And the TNF-α secretion (TNF-α; LPS-activated RAW 264.7, LPS 1 μg/ml 24 h)?
The TNF-α secretion was “slight reduced by compounds 1h, 1i and 1n, but not significantly”.

And the “background level of TNF-α” value (TNF-α; compound alone, no LPS, data not shown)?
Its value is “did not alter”.

And the NF-κB nuclear translocation (NF-κB p65)?
The NF-κB nuclear translocation was “inhibited NF-κB nuclear translocation”.

What about the “LPS-induced proIL-1β expression” value (proIL-1β) of the same compound?
Its value is “inhibited LPS-induced proIL-1β expression in a dose-dependent fashion”.

And the IκB-α degradation (IKK-α and IκB-α)?
The IκB-α degradation was “partially rescued”.

And the “phosphorylation level of IKK-α” value (IKK-α and IκB-α)?
The value was “inhibited”.

And the “phosphorylation level of IκB-α” value (IKK-α and IκB-α)?
Its value is “inhibited”.

And the NF-κB transcriptional activity (NF-κB)?
The NF-κB transcriptional activity was “reduced”.

What about the caspase-1 activation (caspase-1; J774A.1, compound before LPS and ATP treatment) of the same compound?
Its caspase-1 activation is “significantly inhibited”.

What about the caspase-1 activation (caspase-1; LPS-primed J774A.1, compound 30 min before ATP stimulation) of the same compound?
Its caspase-1 activation is “not caspase-1 activation”.
